Values joined by “and” are separate entries in the source; they are usually repeats but may differ in a detail not shown here. Identical values can stand only once. Like-named read-outs stand apart in the source and are kept apart here.
How the values were obtained:
[1] = system: formalin-induced paw-licking; assay: Formalin test (paw licking/biting) in mice; assay type: in vivo; conditions: for Duration of Licking: Trial 1, one value per animal #01-08; for activity at 0.5 mg/kg / activity at 1 mg/kg: Mus musculus, ip, read-out: Area Under the Curve, % of Control
Description: The formalin test for antinociceptive activity is described in numerous publications, e.g., Hunskaar, S., O. B. Fasmer, and K. Hole, J. Neurosci. […] The formalin test is accepted as an art recognized model of persistent clinical pain.
Male Swiss Webster NIH mice (20-30 g; Harlan, San Diego, Calif.) were used in the experiments described herein. Food was withdrawn on the day of experiment. Mice were placed in Plexiglass jars for at least 1 hour to accommodate to the environment. Following the accommodation period, mice were weighed and given either a huperzine compound administered intraperitoneal (i.p.) or oral (p.o.), or the appropriate volume of vehicle (10% Tween-80). Fifteen minutes after the i.p. dosing, and 30 minutes after the p.o. dosing mice were injected with formalin (20 μL of 5% formaldehyde solution in saline) into the dorsal surface of the right hind paw. Mice were transferred to the Plexiglass jars and monitored for the amount of time spent licking or biting the injected paw. Periods of licking and biting were recorded in 5 minute intervals for 40 minutes after the formalin injection. All experiments were done in a blinded manner. The early phase (acute) of the formalin response is measured as licking/biting between 0-5 minutes, and the late phase (inflammatory) is measured from 10-40 minutes. Differences between vehicle and drug treated groups are analyzed by one-way analysis of variance (ANOVA). A P value<0.05 is considered significant.
Fifteen minutes after the i.p. dosing, mice were injected with formalin (20 μL of 5% formaldehyde solution in saline) into the dorsal surface of the right hind paw. Periods of licking and biting were recorded in 5 minute intervals for 40 minutes after the formalin injection as shown below in Tables 1 and 2. All experiments were done according to the art-recognized Anticonvulsant Screening Program of the NINDS at the University of Utah.
Duration of paw licking in the tables below is expressed in seconds.

[2] = system: hippocampal kindled seizures; assay: Rapid hippocampal kindling model, rat; assay type: in vivo; conditions: 1 mg/kg, i.p., time of test ¼-3 h
Description: Seizure testing was carried out as follows.

[3] = system: subcutaneous Metrazol (pentylenetetrazol) seizures; conditions: i.p.
Description: Male, 18-25 g CFI mice and 100-125 g Sprague-Dawley rats (Charles River Laboratories, Wilmington, Mass.) were used as the experimental animals. Animals were pretreated intraperitoneally (i.p.) with increasing doses of HupA and tested at various times after administration for protection against tonic extension (MES test), minimal clonic (s.c. PTZ test), limbic (6 Hz), or secondarily generalized (kindled rat) seizures. Seizure testing was carried out as follows. For the MES and 6 Hz tests, a drop of anesthetic/electrolyte solution (0.5% tetracaine hydrochloride in 0.9% saline) was applied to the eyes of each animal prior to placement of the corneal electrodes. […] The ability of the test substance to prevent seizures induced by 6 Hz corneal stimulation (32 mA, 3 sec duration) was assessed at various times after i.p. administration of 1 mg/kg HupA For assessment of hippocampal kindling, HupA (1 mg/kg, i.p.) was administered.

[4] = system: minimal motor impairment (ataxia, abnormal gait and stance); conditions: rat, in vivo
[5] = system: 6 Hz limbic seizures (corneal stimulation); conditions: for N/F, Time to Peak Effect: IP, 32 mA series; for COMMENT (observed effect): ip
Description: (§1) These three tests are highly predictive of efficacy against human generalized tonic-clonic (MES), generalized myoclonic (sc PTZ), and refractory limbic (6 Hz) seizures, respectively.
(§2) Male, 18-25 g CFI mice and 100-125 g Sprague-Dawley rats (Charles River Laboratories, Wilmington, Mass.) were used as the experimental animals. Animals were pretreated intraperitoneally (i.p.) with increasing doses of HupA and tested at various times after administration for protection against tonic extension (MES test), minimal clonic (s.c. PTZ test), limbic (6 Hz), or secondarily generalized (kindled rat) seizures. Seizure testing was carried out as follows. For the MES and 6 Hz tests, a drop of anesthetic/electrolyte solution (0.5% tetracaine hydrochloride in 0.9% saline) was applied to the eyes of each animal prior to placement of the corneal electrodes.

patients = conditions: human, in vivo; cited from earlier work
[6] = system: 6 Hz limbic seizures (corneal stimulation); assay: animal or person; conditions: Mus musculus, ip
Description: as §1, §2

[7] = system: maximal electroshock (MES) tonic extension seizures; assay: Maximal Electroshock (MES) model, mice; conditions: for Mice protected against seizures, MES: 3 mg/kg; for N/F, MES time course: mice, I.P., 5 mg/kg
Description: (§3) The maximal electroshock (MES) model is an art recognized test, useful to investigate the efficacy of therapeutic agents against grand mal seizures. Maximal seizures were induced by the application of electrical current to the brain via corneal electrodes. The stimulus parameters for mice were 50 mA in a pulse of 60 Hz for 200 ms.
(§4) Male, 18-25 g CFI mice and 100-125 g Sprague-Dawley rats (Charles River Laboratories, Wilmington, Mass.) were used as the experimental animals. Animals were pretreated intraperitoneally (i.p.) with increasing doses of HupA and tested at various times after administration for protection against tonic extension (MES test), minimal clonic (s.c. PTZ test), limbic (6 Hz), or secondarily generalized (kindled rat) seizures. Seizure testing was carried out as follows. For the MES and 6 Hz tests, a drop of anesthetic/electrolyte solution (0.5% tetracaine hydrochloride in 0.9% saline) was applied to the eyes of each animal prior to placement of the corneal electrodes. […] Animals not displaying secondarily generalize seizures were considered protected.

[8] = system: maximal electroshock (MES) tonic extension seizures; assay: Maximal Electroshock (MES) model, rats; conditions: oral, 1 mg/kg
Description: as §3, §4

[9] = system: minimal motor impairment (ataxia, abnormal gait and stance); assay: Toxicity (TOX) / minimal motor impairment, rats; conditions: oral, 1 mg/kg
[10] = system: subcutaneous Metrazol (pentylenetetrazol) seizures; assay: Subcutaneous Metrazol (SCMET / scPTZ) model, rats
Description: The Subcutaneous Metrazole (SCMET) model is also an art-recognized test for therapeutic agents for epilepsy, and in particular, is useful for investigating petite mal seizures.

[11] = 0.5 mg/kg i.p., Inflammatory phase
[12] = 1 mg/kg i.p., Inflammatory phase

C/C=C1\[C@H]2C=C(C)C[C@]1(N)c1ccc(=O)[nH]c1C2 [Huperzine A]
Time spent licking ([1]; 0.5 mg/kg i.p.): impressive reduction in the time spent licking
Duration of Licking ([1]; 0.5 mg/kg i.p., 0 min): 10.00 sec and 0.00 sec and 3.00 sec and 1.00 sec (4×) and 2.00 sec
Duration of Licking ([1]; 0.5 mg/kg i.p., 5 min): 0.00 s
Duration of Licking ([1]; 0.5 mg/kg i.p., 10 min): 0.00 s
Duration of Licking ([1]; 0.5 mg/kg i.p., 15 min): 0.00 s
Duration of Licking ([1]; 0.5 mg/kg i.p., 20 min): 0.00 s
Duration of Licking ([1]; 0.5 mg/kg i.p., 25 min): 0.00 s
Duration of Licking ([1]; 0.5 mg/kg i.p., 30 min): 0.00 s
Duration of Licking ([1]; 0.5 mg/kg i.p., 35 min): 0.00 s
Duration of Licking ([1]; 0.5 mg/kg i.p., 40 min): 0.00 s
Area Under the Curve, Drug Tested ([1]; 0.5 mg/kg i.p., Acute phase): 7.3
Area Under the Curve, Drug Tested [1, 11]: 0.0
Inhibition of phase 1 (acute) and phase 2 (inflammatory) pain response ([1]; 1 mg/kg i.p., mice): complete inhibition
Area Under the Curve, Drug Treated ([1]; 1 mg/kg i.p., Acute phase): 0.0
Area Under the Curve, Drug Treated [1, 12]: 0.0
activity at 0.5 mg/kg ([1]; 0.5 mg/kg i.p., Acute phase): 2.8%
activity at 0.5 mg/kg [1, 11]: 0%
activity at 1 mg/kg ([1]; 1 mg/kg i.p., Acute phase): 0%
activity at 1 mg/kg [1, 12]: 0%
Maximum Protection Observed [2]: 0%
N/F (mice showing an effect / mice tested), SCMET ([3]; 1 mg/kg SOL, 0.5 h): 3/5
N/F (mice showing an effect / mice tested), SCMET ([3]; 1 mg/kg SOL, 4.0 h): 0/1
N/F (mice showing an effect / mice tested), SCMET ([3]; 3 mg/kg SUS, 0.5 h): 1/1
N/F (mice showing an effect / mice tested), SCMET ([3]; 3 mg/kg SUS, 4.0 h): 0/1
N/F (mice showing an effect / mice tested), SCMET ([3]; 10 mg/kg SUS, 0.5 h): 0/1
N/F (mice showing an effect / mice tested), SCMET ([3]; 10 mg/kg SUS, 4.0 h): 1/1
Maximum Protection Observed ([3]; scPTZ, Mouse, 1 mg/kg, time of test 2 h): 25%
Behavioral impairment [4]: marked motor impairment
Protection in the mouse 6 Hz test (FIG. 1) ([5]; 0.8 mg/kg): time-dependent protection
Maximum Protection Observed ([5]; 6 Hz, Mouse, 0.83 mg/kg, i.p., time of test 1 h): 100%
N/F, Time to Peak Effect ([5]; 0.83 mg/kg, 0.25 h): 1/4
N/F, Time to Peak Effect ([5]; 0.83 mg/kg, 0.5 h): 1/4
N/F, Time to Peak Effect ([5]; 0.83 mg/kg, 1.0 h): 4/4
N/F, Time to Peak Effect ([5]; 0.83 mg/kg, 2.0 h): 2/4
N/F, Time to Peak Effect ([5]; 0.83 mg/kg, 4.0 h): 0/4
Protection against 6 Hz seizures (FIG. 2) ([5]; mouse, in vivo): dose-dependent protection
COMMENT (observed effect) ([5]; mouse, in vivo, 0.18 mg/kg): Minimal motor impairment
COMMENT (observed effect) ([5]; mouse, in vivo, 0.2 mg/kg): Tremors
COMMENT (observed effect) ([5]; mouse, in vivo, 0.35 mg/kg): Minimal motor impairment
Adverse effects in patients (patients): noted infrequently and were mainly cholinergic
ED50 ([6]; 1 h, 22 mA): 0.279 mg/kg
ED50 ([6]; 1 h, 32 mA): 0.339 mg/kg
ED50 ([6]; 22 mA): 0.28 mg/kg
ED50 ([6]; 32 mA): 0.34 mg/kg
ED50 ([6]; 44 mA): 0.78 mg/kg
Protection in the mouse MES test (FIG. 1) ([7]; 1 mg/kg): time-dependent protection
Mice protected against seizures, MES ([7]; 30 minutes post administration): 33%
Mice protected against seizures, MES ([7]; four hours post administration): 100%
Maximum Protection Observed ([7]; MES, Mouse, 1 mg/kg, i.p., time of test 1 & 2 h): 75%
N/F (mice showing an effect / mice tested), MES ([7]; i.p., 0.1 mg/kg SOL, 4.0 h): 0/4
N/F (mice showing an effect / mice tested), MES ([7]; i.p., 0.3 mg/kg SOL, 4.0 h): 0/4
N/F (mice showing an effect / mice tested), MES ([7]; i.p., 1 mg/kg SUS, 0.5 h): 0/1
N/F (mice showing an effect / mice tested), MES ([7]; i.p., 1 mg/kg SUS, 4.0 h): 1/1
N/F (mice showing an effect / mice tested), MES ([7]; i.p., 3 mg/kg SUS, 0.5 h): 1/3
N/F (mice showing an effect / mice tested), MES ([7]; i.p., 3 mg/kg SUS, 4.0 h): 3/3
N/F (mice showing an effect / mice tested), MES ([7]; i.p., 10 mg/kg SUS, 0.5 h): 1/1
N/F (mice showing an effect / mice tested), MES ([7]; i.p., 10 mg/kg SUS, 4.0 h): 1/1
N/F, MES time course ([7]; 0.5 h): 1/4
N/F, MES time course ([7]; 1.0 h): 3/4
N/F, MES time course ([7]; 2.0 h): 3/4
N/F, MES time course ([7]; 4.0 h): 3/4
N/F, MES time course ([7]; 6.0 h): 4/4
N/F, MES time course ([8]; 0.25 h): 0/4
N/F, MES time course ([8]; 0.5 h): 0/4
N/F, MES time course ([8]; 1.0 h): 1/4
N/F, MES time course ([8]; 2.0 h): 1/4
N/F, MES time course ([8]; 4.0 h): 0/4
N/F, MES time course ([8]; 6.0 h): 0/4
Toxicity [9]: no toxicity in any of the animals
Time of peak anticonvulsant activity ([10]; after p.o. administration of 1 mg/kg, test not given): one-hour
Maximum protection ([10]; p.o., doses tested 1, 2 and 4 mg/kg, at a non-toxic dose of 1 mg/kg, test not given): 62.5%
N/F, SCMET time course ([10]; rats, oral, 1 mg/kg, 0.25 h): 0/4
N/F, SCMET time course ([10]; rats, oral, 1 mg/kg, 0.5 h): 2/4
N/F, SCMET time course ([10]; rats, oral, 1 mg/kg, 1.0 h): 2/4
N/F, SCMET time course ([10]; rats, oral, 1 mg/kg, 2.0 h): 1/4
N/F, SCMET time course ([10]; rats, oral, 1 mg/kg, 4.0 h): 1/4
N/F, SCMET time course ([10]; rats, oral, 1 mg/kg, 6.0 h): 0/4
Time of peak activity post administration ([10]; rats, oral, 1 mg/kg, MES and SCMET models): between 30 minutes and two hours
Maximum Protection Observed ([10]; scPTZ, Rat, 2 mg/kg, p.o., time of test ½ h): 62.5%

Reference: patent US20060264455A1 (priority 2005, published 2006)
